According to patent publication US11486880B2, “Method of measuring harshness of a surfactant” (Conopeo, Inc., priority 2018, dated 2022):

Tested on: Zein protein
Test: Harshness of surfactant by dye release from solid Zein protein-Coomassie Blue R dye complex (CIE L*a*b colour change)
Set-up: species or system corn
Details: 10 wt % surfactant dilution; disc of protein-dye complex soaked 15 minutes; decrease in b* between first and second colour measurement; lower b = harsher; three replicates
Protocol: Zein powder (10 wt %) and Coomassie Blue R dye (0.1%) were added to a glass jar, and made up to 100 wt % with 90:10 aqueous ethanol (90 ethanol: 10 water). The mixture was left to disperse with stirring for 12 hours to produce protein-dye complex solution.
2 g of the protein-dye complex solution was added to four petri dishes and dried overnight under ambient conditions. The dried discs of protein-dye complex were then removed from the petri dishes and stored until required.
Dilutions (10 wt %) of four surfactants were prepared and a first colour measurement of each dilution was taken using CIEL*a*b on a Konica Minolta spectrometer.
A disc of protein-dye complex was added to each surfactant dilution, and soaked for 15 minutes. A second colour measurement was obtained of the resulting solutions. The decrease in b* value between the first and second colour measurement indicated the increase in blue colour. The lower the b value the ‘bluer’ the sample and the harsher the formulation. Three samples from each surfactant solution were measured as replicates.

Structure (SMILES): CCCCCCCCCCO[C@@H]1O[C@H](CO)[C@@H](O)[C@H](O)[C@H]1O [Decyl Glucoside]
- Average Δb*: −11.2625

Structure (SMILES): CCCCCCCCCCCCOS(=O)(=O)[O-].[Na+] [SDS]
- Average Δb*: −49.465
